Data taken from patent US4794118A, “1,4-benzodioxane derivatives” (Eisai Co., Ltd., priority 1985, dated 1988).

Columns and labels:
Acute toxicity in mice = details: mouse, in vivo
Protocol: Acute toxicity in mice was investigated with respect to 8-hydroxy-2-nitratomethyl-7-nitro-1,4-benzodioxane. […] A similar experiment was also conducted with an intravenous administration of NG.

coronary blood flow = assay: Effects on the coronary blood flow in anesthetized open-chest dogs; assay type: in vivo, mongrel dogs; details: for Max. increase in coronary blood flow: anesthetized open-chest dogs
Protocol: Effects on the coronary blood flow in anesthetized open-chest dogs
Mongrel dogs of either sex weighing 9-14 kg were subjected to inhalation anesthesia with enflurane under artificial respiration. […] Test compounds were administered cumulatively at intervals of 10 minutes through a catheter inserted into the left femoral vein.

[1] = tested on: spontaneously hypertensive rats (SHR); assay: Hypotensive effects in spontaneously hypertensive rats (SHR) under anesthesia; assay type: in vivo, rat (SHR); details: anesthetized SHR
Protocol: Hypotensive effects in spontaneously hypertensive rats (SHR) under anesthesia
Male SHR of 20 weeks of age or older were anesthetized with sodium pentobarbital (40 mg/kg, i.p.). The carotid artery and jugular vein were cannulated. Blood pressure was recorded from the carotid artery on a polygraph via a pressure transducer. Test compounds were dissolved in a solution containing 0.9% NaCl and 1% Tween 80 and administered either intravenously into the jugular vein or intraduodenally through a cannula inserted into the duodenum.
As a representative of this invention, compound A (8-hydroxy-2-nitrato-methyl-7-nitro-1,4-benzodioxane) was chosen.

[2] = tested on: arterial and venous systems; assay: Effects on the arterial and venous systems in anesthetized open-chest dogs; assay type: in vivo, mongrel dogs; details: for Max. change in mean blood pressure at diastole, Aortic / Max. change in mean blood pressure at diastole, Pulmonary: anesthetized open-chest dogs
Protocol: Effects on the arterial and venous systems in anesthetized open-chest dogs
Mongrel dogs of either sex, weighing 12-16 kg were subjected to inhalation anesthesia with enflurane under artificial respiration. The dogs were subjected to thoracotomy through the fourth right intercostal wall and catheters were inserted into the thoracic aorta and right pulmonary artery. The aortic and pulmonary blood pressures were measured by means of cathether tip-type piezoelectric transducers.
Test compounds were cumulatively administered with intervals of 30 minutes either intravenously or intraduodenally through catheters placed in the left femoral vein and duodenum.

[3] = intravenous administration, dogs
[4] = intravenous, dogs, vs nicorandil

With O=[N+]([O-])OCC1COc2ccc([N+](=O)[O-])c(O)c2O1 (stereo not drawn) [Compound A, 8-hydroxy-2-nitratomethyl-7-nitro-1,4-benzodioxane] as the molecule, how does the LD50 (Acute toxicity in mice; intravenous administration) read?
Its LD50 is 200 to 250 mg/kg.

And the LD50 (Acute toxicity in mice; oral administration)?
The LD50 was 500 to 1000 mg/kg.

And the “Max. increase in coronary blood flow” value (coronary blood flow; 1 μg/Kg, intravenous)?
Its value is 52.0%.

And the “Max. increase in coronary blood flow” value (coronary blood flow; 3 μg/Kg, intravenous)?
The value was 84.7%.

And the “Max. increase in coronary blood flow” value (coronary blood flow; 10 μg/Kg, intravenous)?
Its value is 127.6%.

What about the “dose range causing a marked and dose-dependent increase in coronary blood flow” value (coronary blood flow; [3]) of the same molecule?
Its value is 0.001 to 0.01 mg/kg.

And the “effect on the coronary flow, potency relative to NG” value (coronary blood flow; intravenous, dogs, vs NG)?
Its value is “about 3 times”.

What about the minimal effective dose ([1]; Rattus norvegicus, intravenous administration, read-out: dose as small as which caused a marked hypotension) of the same molecule?
The minimal effective dose was 0.0003 mg/kg.

And the hypotension ([1]; intraduodenal administration)?
Its hypotension is “dose-dependent hypotension”.

What about the “hypotensive potency relative to ISDN” value ([1]; intraduodenal, vs ISDN) of the same molecule?
Its value is about 30 times.

What about the “hypotensive potency relative to NG” value ([1]; intraduodenal, vs NG) of the same molecule?
The value was about 10 times.

What about the “hypotensive potency relative to nicorandil” value ([1]; intraduodenal, vs nicorandil) of the same molecule?
Its value is “about 5 times”.

What about the “potency to cause 30% decrease in mean aortic pressure relative to ISDN” value ([1]; intravenous, vs ISDN) of the same molecule?
The value was 250 times.

What about the “potency to cause 30% decrease in mean aortic pressure relative to NG” value ([1]; intravenous, vs NG) of the same molecule?
The value was 5 times.

What about the “potency to cause 30% decrease in mean aortic pressure relative to nicorandil” value ([1]; intravenous, vs nicorandil) of the same molecule?
The value was 300 times.

And the “Max. change in mean blood pressure at diastole, Aortic” value (“Max. change … Aortic” below) ([2]; i.d, 30 μg/Kg)?
Its value is -2 mm/Hg.

And the “Max. change in mean blood pressure at diastole, Pulmonary” value (shortened to “Max. change … Pulmonary”) ([2]; i.d, 30 μg/Kg)?
The value was -1.5 mm/Hg.

And the “Max. change … Aortic” value ([2]; i.d, 100 μg/Kg)?
The value was -15 mm/Hg.

What about the “Max. change … Pulmonary” value ([2]; i.d, 100 μg/Kg) of the same molecule?
Its value is -2.5 mm/Hg.

What about the “Max. change … Aortic” value ([2]; i.d, 300 μg/Kg) of the same molecule?
Its value is -22 mm/Hg.

And the “Max. change … Pulmonary” value ([2]; i.d, 300 μg/Kg)?
The value was -3.5 mm/Hg.

And the “Max. change … Aortic” value ([2]; i.v, 1 μg/Kg)?
The value was -23 mm/Hg.

What about the “Max. change … Pulmonary” value ([2]; i.v, 1 μg/Kg) of the same molecule?
Its value is -2.5 mm/Hg.

What about the “Max. change … Aortic” value ([2]; i.v, 3 μg/Kg) of the same molecule?
Its value is -39.2 mm/Hg.

And the “Max. change … Pulmonary” value ([2]; i.v, 3 μg/Kg)?
Its value is -3.2 mm/Hg.

And the “Max. change … Aortic” value ([2]; i.v, 10 μg/Kg)?
Its value is -44.2 mm/Hg.

And the “Max. change … Pulmonary” value ([2]; i.v, 10 μg/Kg)?
The value was -5.3 mm/Hg.

And the “reductions in aortic and pulmonary blood pressures” value ([2]; intraduodenal administration, dogs)?
The value was “dose-dependent reductions in aortic and pulmonary blood pressures”.

And the “potency (reductions in aortic and pulmonary blood pressures) relative to NG” value ([2]; intraduodenal, dogs, vs NG)?
The value was “about 3 times”.

What about the “reduction of aortic and pulmonary blood pressure” value [2, 3] of the same molecule?
The value was “reduced aortic and pulmonary blood pressure dose-dependently”.

What about the “vasodilating effect on the arterial system (reduction in aortic blood pressure) relative to nicorandil” value [2, 4] of the same molecule?
The value was “about 3 times”.

What about the “vasodilating effect on the venous system (reduction in pulmonary blood pressure) relative to nicorandil” value [2, 4] of the same molecule?
The value was “about 3 times”.

Which results are given for O=[N+]([O-])OCC(CO[N+](=O)[O-])O[N+](=O)[O-] [NG, nitroglycerin]?
LD50 (Acute toxicity in mice; intravenous administration): 10 to 15 mg/kg; Max. increase in coronary blood flow (coronary blood flow; 3 μg/Kg, intravenous): 31.3%; Max. increase in coronary blood flow (coronary blood flow; 10 μg/Kg, intravenous): 79.7%; Max. increase in coronary blood flow (coronary blood flow; 30 μg/Kg, intravenous): 165.0%; Max. change in mean blood pressure at diastole, Aortic ([2]; i.d, 30 μg/Kg): -1.7 mm/Hg; Max. change in mean blood pressure at diastole, Pulmonary ([2]; i.d, 30 μg/Kg): -0.7 mm/Hg; Max. change in mean blood pressure at diastole, Aortic ([2]; i.d, 100 μg/Kg): -3.3 mm/Hg; Max. change in mean blood pressure at diastole, Pulmonary ([2]; i.d, 100 μg/Kg): -1 mm/Hg; Max. change in mean blood pressure at diastole, Aortic ([2]; i.d, 300 μg/Kg): -10 mm/Hg; Max. change in mean blood pressure at diastole, Pulmonary ([2]; i.d, 300 μg/Kg): -1.7 mm/Hg; Max. change in mean blood pressure at diastole, Aortic ([2]; i.v, 3 μg/Kg): -21.7 mm/Hg; Max. change in mean blood pressure at diastole, Pulmonary ([2]; i.v, 3 μg/Kg): -0.8 mm/Hg; Max. change in mean blood pressure at diastole, Aortic ([2]; i.v, 10 μg/Kg): -33.3 mm/Hg; Max. change in mean blood pressure at diastole, Pulmonary ([2]; i.v, 10 μg/Kg): -3.0 mm/Hg; Max. change in mean blood pressure at diastole, Aortic ([2]; i.v, 30 μg/Kg): -40.0 mm/Hg; Max. change in mean blood pressure at diastole, Pulmonary ([2]; i.v, 30 μg/Kg): -3.7 mm/Hg

Which results are given for O=C(NCCO[N+](=O)[O-])c1cccnc1 [Nicorandil, N-[2-(nitroxy)ethyl]-3-pyridinecarboxamide]?
Max. change in mean blood pressure at diastole, Aortic ([2]; i.v, 30 μg/Kg): -10.3 mm/Hg; Max. change in mean blood pressure at diastole, Pulmonary ([2]; i.v, 30 μg/Kg): -1 mm/Hg; Max. change in mean blood pressure at diastole, Aortic ([2]; i.v, 100 μg/Kg): -18.6 mm/Hg; Max. change in mean blood pressure at diastole, Pulmonary ([2]; i.v, 100 μg/Kg): -1.5 mm/Hg; Max. change in mean blood pressure at diastole, Aortic ([2]; i.v, 300 μg/Kg): -50.9 mm/Hg; Max. change in mean blood pressure at diastole, Pulmonary ([2]; i.v, 300 μg/Kg): -2.1 mm/Hg
